Experimental data published in patent US5164381A, “Pharmacologically active 1,5-diaryl-3-substituted pyrazoles and method for synthesizing the same” (Ortho Pharmaceutical Corporation, priority 1991, dated 1992).
Where a name gives a salt, the structure may show the parent alone.

Tested on: Lewis strain laboratory rats
Assay: In vivo alleviation of inflammation: polyarthritis (adjuvant, Mycobacterium butyricum) in rats, inhibition of paw volume increase
Settings: Rattus norvegicus, po, rat; read-out: ED50 (effective dose to obtain a 50% inhibition of inflammation)
Method: Polyarthritis was induced in Lewis strain laboratory rats (weight=about 200 grams) by injection of a suspension of Mycobacterium butyricum in mineral oil into the subplantar tissue of the mammal's hind paws. On day 10 after the injection, the rats were assigned to groups, and paw volumes and body weights were recorded. Paw volumes of the contralateral, uninjected hind paw were determined by mercury plethylsmography. Per oral (p.o.) dosing began and continued for five consecutive days thereafter. On day 14 after the initial injection, approximately four hours after the final dose was administered, paw volumes and body weights were recorded and quantitated.
Anti-inflammatory activity of the substituted pyrazole compounds is expressed as the percent inhibition of paw volume increase.

For `COc1ccc(-n2nc(CCC=O)cc2-c2ccc(Cl)cc2)cc1` [Compound 11, 3-[5-(4-Chlorophenyl)-1-(4-methoxyphenyl)-3-pyrazolyl] propanal], which ED50 is on record?
The ED50 was 2.6 mg/kg.

Which ED50 does the source give for `COc1ccc(-c2cc(CCC(=O)N(C)O)nn2-c2ccc(Cl)cc2)cc1` [Compound 112] here?
Its ED50 is 16.3 mg/kg.

`COc1ccc(-n2nc(CCC(=O)N(C)OC(=O)CCC(=O)O)cc2-c2ccc(C)cc2)cc1` [Compound 130] was tested. Which ED50 did it give?
Its ED50 is 11.5 mg/kg.

Same assay, conditions: po, 336 h; 9 mpk p.o., rat; read-out: % INH. p.o. (percentage inhibition of pad swelling)

With `COc1ccc(-n2nc(CCCN(O)S(C)(=O)=O)cc2-c2ccc(Cl)cc2)cc1` [Compound 156] as the compound, how does the inhibition in vivo at 9 mg/kg read?
Its inhibition in vivo at 9 mg/kg is 34%.

Same assay, conditions: po, 336 h; 10 mpk p.o., rat; read-out: % INH. p.o. (percentage inhibition of pad swelling)

For `COc1ccc(-n2nc(CCC(=O)N(C)OC(=O)C(C)(C)C)cc2-c2ccc(Cl)cc2)cc1` [Compound 141], which inhibition in vivo at 10 mg/kg is on record?
The inhibition in vivo at 10 mg/kg was 17%.

Which inhibition in vivo at 10 mg/kg does the source give for `CCc1ccc(-c2cc(CCC(=O)N(C)O)nn2-c2ccc(OC)cc2)cc1` [Compound 119] here?
Its inhibition in vivo at 10 mg/kg is 24%.

With `COc1ccc(-n2nc(CCC(=O)N(C)O)cc2-c2cccc(C)c2)cc1` [Compound 115] as the compound, how does the inhibition in vivo at 10 mg/kg read?
The inhibition in vivo at 10 mg/kg was 35%.

Which inhibition in vivo at 10 mg/kg does the source give for `COc1ccc(-n2nc(CCCN(O)C(C)=O)cc2-c2ccc(Cl)cc2)cc1` [Compound 152, N-[3-[5-(4-Chlorophenyl)-1-(4-methoxyphenyl)-3-pyrazolyl]propyl]-N-hydroxy-acetamide] here?
The inhibition in vivo at 10 mg/kg was 40%.

`CCOC(=O)C(C)N(O)C(=O)CCc1cc(-c2ccc(Cl)cc2)n(-c2ccc(OC)cc2)n1` (centres unmarked) [Compound 144] was tested. Which inhibition in vivo at 10 mg/kg did it give?
The inhibition in vivo at 10 mg/kg was 55%.

How did the inhibition in vivo at 10 mg/kg turn out when `COc1ccc(-n2nc(CCC(=O)N(C)O)cc2-c2ccc(Cl)cc2)cc1` [Compound 3a, 3-[5-(4-Chlorophenyl)-1-(4-methoxyphenyl)-3-pyrazolyl] -N-hydroxy-N-methylpropanamide sodium salt monohydrate] was run?
The inhibition in vivo at 10 mg/kg was 65%.

For `COc1ccc(-n2nc(CCC(=O)O)cc2-c2ccc(C)c(C)c2)cc1` [Compound 107], which inhibition in vivo at 10 mg/kg is on record?
The inhibition in vivo at 10 mg/kg was 30%.

`COc1ccccc1-n1nc(CCC(=O)O)cc1-c1ccc(Cl)cc1` [Compound 103] was tested. Which inhibition in vivo at 10 mg/kg did it give?
The inhibition in vivo at 10 mg/kg was 55%.

Same assay, conditions: po, 336 h; 15 mpk p.o., rat; read-out: % INH. p.o. (percentage inhibition of pad swelling)

How did the inhibition in vivo at 15 mg/kg turn out when `COc1ccc(-n2nc(CCC(=O)N(C)O)c(Cl)c2-c2ccc(Cl)cc2)cc1` [Compound 149] was run?
The inhibition in vivo at 15 mg/kg was 68%.

`COc1ccc(-n2nc(CCCNC(=O)C(=O)NO)cc2-c2ccc(Cl)cc2)cc1` [Compound 164] was tested. Which inhibition in vivo at 15 mg/kg did it give?
The inhibition in vivo at 15 mg/kg was 13%.

For `COc1ccc(-n2nc(CCC(=O)c3ccccc3)cc2-c2ccc(Cl)cc2)cc1` [Compound 181], which inhibition in vivo at 15 mg/kg is on record?
The inhibition in vivo at 15 mg/kg was 30%.

How did the inhibition in vivo at 15 mg/kg turn out when `CCOC(=O)CNC(=O)CCc1cc(-c2ccc(Cl)cc2)n(-c2ccc(OC)cc2)n1` [Compound 87] was run?
Its inhibition in vivo at 15 mg/kg is 22%.

How did the inhibition in vivo at 15 mg/kg turn out when `CCOc1ccc(-n2nc(CCC(=O)O)cc2-c2ccc(Cl)cc2)cc1` [Compound 72] was run?
Its inhibition in vivo at 15 mg/kg is 71%.

Same assay, conditions: po, 336 h; 25 mpk p.o., rat; read-out: % INH. p.o. (percentage inhibition of pad swelling)

How did the inhibition in vivo at 25 mg/kg turn out when `CCN(CC)C(=O)CCc1cc(-c2ccc(Cl)cc2)n(-c2ccc(OC)cc2)n1` [Compound 28, 3-[5-(4-Chlorophenyl)-1-(4-methoxyphenyl)-3-pyrazolyl]-N,N-diethylpropanamide] was run?
Its inhibition in vivo at 25 mg/kg is 44%.

With `COc1ccc(-n2nc(CCC(=O)NCC(=O)O)cc2-c2ccc(Cl)cc2)cc1` [Compound 66, N-Carboxymethyl-3-[5-(4-chlorophenyl)-1-(4-methoxyphenyl)-3-pyrazolyl]propanamide] as the compound, how does the inhibition in vivo at 25 mg/kg read?
Its inhibition in vivo at 25 mg/kg is 62%.

With `COc1ccc(-n2nc(CCCNO)cc2-c2ccc(Cl)cc2)cc1` [Compound 151, N-[3-[5-(4-Chlorophenyl)-1-(4-methoxyphenyl)-3-pyrazolyl]propyl]hydroxyl-amine] as the compound, how does the inhibition in vivo at 25 mg/kg read?
The inhibition in vivo at 25 mg/kg was 42%.

Which inhibition in vivo at 25 mg/kg does the source give for `OCCCc1cc(-c2ccc(Cl)cc2)n(-c2ccccc2C(F)(F)F)n1` [Compound 60] here?
The inhibition in vivo at 25 mg/kg was 8%.

Which inhibition in vivo at 25 mg/kg does the source give for `Cc1ccc(-n2nc(CCCO)cc2-c2ccc(Cl)cc2)cc1` [Compound 37] here?
Its inhibition in vivo at 25 mg/kg is 41%.

Same assay, conditions: po, 336 h; 40 mpk p.o., rat; read-out: % INH. p.o. (percentage inhibition of pad swelling)

Which inhibition in vivo at 40 mg/kg does the source give for `CCOC(=O)CCc1cc(-c2ccc(Cl)cc2)n(-c2ccc(OCC)cc2)n1` [Compound 75] here?
Its inhibition in vivo at 40 mg/kg is 73%.

Same assay, conditions: po, 336 h; 50 mpk p.o., rat; read-out: % INH. p.o. (percentage inhibition of pad swelling)

Which inhibition in vivo at 50 mg/kg does the source give for `COc1ccccc1-n1nc(CCCO)cc1-c1ccc(Cl)cc1` [Compound 22] here?
The inhibition in vivo at 50 mg/kg was 33%.

For `OCCCc1cc(-c2ccc(Cl)cc2)n(-c2ccccc2)n1` [Compound 1], which inhibition in vivo at 50 mg/kg is on record?
The inhibition in vivo at 50 mg/kg was 62%.

For `OCCCc1cc(-c2ccccc2)n(-c2ccc(Cl)cc2)n1` [Compound 21], which inhibition in vivo at 50 mg/kg is on record?
The inhibition in vivo at 50 mg/kg was 52%.
